{"source": "patent US12377077B2", "about": "“Methods and formulations to treat mitochondrial dysfunction” (The Board of Trustees of the Leland Stanford Junior …, priority 2018, dated 2025)", "key": {"AMPK": {"tested_on": "AMPK", "assay": "AMPK activity used in determining EC50 (FIG. 16B)", "format": "biochemical"}, "[1]": {"tested_on": "phosphorylated ACC (pACC)", "assay": "pACC western blot in mitochondrial-defective patient cells", "format": "cell-based, human", "details": "mitochondrial-defective patient cells vs DMSO; FIG. 16A"}, "CI-deficient fibroblasts": {"tested_on": "CI-deficient fibroblasts", "assay": "Cell viability by Calcein AM in mitochondrial stressor media", "format": "cell-based, human", "details": "FIG. 2C", "procedure": "Fibroblasts previously derived from four patients with primary mitochondrial disease (Surf1, Complex I, Cox10, Polg), three patients with NGLY1 deficiency and four normal controls were used for the study. All samples were obtained with informed consent and approved by the Stanford IRB. Fibroblasts were maintained in DMEM medium containing 8.3 mM glucose and supplemented with 10% fetal bovine serum (FBS)(Fisher Scientific), 1% Penicillin-Streptomycin (10,000 U/mL)(Life Technologies), 1% glutaMAX (Life Technologies), 1% uridine (5 mg/ml) and 1% pyruvate (11 mg/ml) at 37° C., 5% CO2.\nFor the screening of various compounds, 15×10^3 cells/500 ul media were seeded in quadruplets on 24 well microtiter plates. The following day, the medium was removed, wells washed with PBS and replaced with a mitochondrial stressor media containing DMEM, 1% Penicillin-Streptomycin (10,000 U/mL)(Life Technologies), 10% FCS (Fisher Scientific), 1 mM Galactose (Sigma Aldrich), and 25 μM sodium azide with or without the following compounds: 1 mM AICAR (Medchem Express), 1 mM Metformin (Sigma Aldrich), 100 μM PT1 (Santa Cruz Biotechnology), 100 μM A-769662 (Medchem Express), 100 μM C24 (Medchem Express). Following treatment with the various compounds, tissue cultures were analyzed for growth, oxygen consumption rate, and ATP levels.\nMethods: Cell growth was measured by a fluorometric method using Calcein AM (Anaspec). Mitochondrial stressor media was removed, wells washed with PBS and then incubated with 500 ul/well of 800 nM Calcein AM in PBS for 30 min at 37 C, 5% CO2. Cell viability was measured by values obtained using a 485 nm excitation with the Flouroskan Ascent Microplate Fluorometer (Thermo Scientific)."}, "[2]": {"tested_on": "COX10-deficient fibroblasts", "assay": "Cell viability by Calcein AM in mitochondrial stressor media", "format": "cell-based, human", "details": "FIG. 2B", "procedure": "(§1) Fibroblasts previously derived from four patients with primary mitochondrial disease (Surf1, Complex I, Cox10, Polg), three patients with NGLY1 deficiency and four normal controls were used for the study. All samples were obtained with informed consent and approved by the Stanford IRB. Fibroblasts were maintained in DMEM medium containing 8.3 mM glucose and supplemented with 10% fetal bovine serum (FBS)(Fisher Scientific), 1% Penicillin-Streptomycin (10,000 U/mL)(Life Technologies), 1% glutaMAX (Life Technologies), 1% uridine (5 mg/ml) and 1% pyruvate (11 mg/ml) at 37° C., 5% CO2. For the screening of various compounds, 15×10^3 cells/500 ul media were seeded in quadruplets on 24 well microtiter plates. The following day, the medium was removed, wells washed with PBS and replaced with a mitochondrial stressor media containing DMEM, 1% Penicillin-Streptomycin (10,000 U/mL)(Life Technologies), 10% FCS (Fisher Scientific), 1 mM Galactose (Sigma Aldrich), and 25 μM sodium azide with or without the following compounds: 1 mM AICAR (Medchem Express), 1 mM Metformin (Sigma Aldrich), 100 μM PT1 (Santa Cruz Biotechnology), 100 μ[…] Express). Following treatment with the various compounds, tissue cultures were analyzed for growth, oxygen consumption rate, and ATP levels. Methods: Cell growth was measured by a fluorometric method using Calcein AM (Anaspec). Mitochondrial stressor media was removed, wells washed with PBS and then incubated with 500 ul/well of 800 nM Calcein AM in PBS for 30 min at 37 C, 5% CO2. Cell viability was measured by values obtained using a 485 nm excitation with the Flouroskan Ascent Microplate Fluorometer (Thermo Scientific)."}, "[3]": {"tested_on": "POLG-deficient fibroblasts", "assay": "Cell viability by Calcein AM in mitochondrial stressor media", "format": "cell-based, human", "details": "FIG. 2D", "procedure": "as §1"}, "[4]": {"tested_on": "SURF1-deficient fibroblasts", "assay": "Cell viability by Calcein AM in mitochondrial stressor media", "format": "cell-based, human", "details": "for cellular viability, dose dependent manner: SURF1 deficient fibroblasts, FIG. 2F", "procedure": "as §1"}, "[5]": {"tested_on": "SURF1-deficient fibroblasts", "assay": "Cellular morphology by phase-contrast microscopy", "format": "cell-based, human", "details": "vs DMSO", "excerpt": "Fibroblasts in tissue culture were visualized by phase-contrast microscopy with a Leica DM IRB microscope at ×10 magnification, and images were taken with the Hamamatsu ORCA-ER camera."}, "[6]": {"tested_on": "phosphorylated ACC (pACC)", "assay": "pACC western blot in skeletal muscle of Sco2 KI/KO mice", "format": "in vivo", "details": "KI/KO mice vs vehicle; FIGS. 11F-11G", "excerpt": "(§2) Methods: To examine the effects of AMPK agonists on in vivo systems with mitochondrial dysfunction, MK8722 was used to treat a mouse model of mitochondrial disease. These mice have mitochondrial Complex IV deficiency caused by deficient cytochrome C oxidase assembly protein, SCO2, and harbor a Sco2 knock-out (KO) allele and a Sco2 knock-in (KI) allele expressing an E→K mutation at position 129 (E129K). The E129K mutation corresponds to the E140K mutation found in almost all human SCO2-mutated patients. (See e.g., Yang et al, Analysis of mouse models of cytochrome c oxidase deficiency owing to mutations in Sco2. Hum Mol Genet. 2010 Jan. 1; 19(1):170-80; the disclosure of which is incorporated by reference herein in its entirety.) The predominant phenotype of Sco2 deficient mice is reduced locomotor function and ocular defects, both common findings in patients with primary mitochondrial disease. The Sco2 mice were grouped into four treatment groups: Sco2 KI/KO+MK8722, Sco2 KI/KO+DMSO (vehicle), Control KI/WT+MK8722, Control KI/WT+DMSO with 7-9 mice per group. 1.5-month old Sco2 mice were treated once daily by oral gavage with MK8722 (10 mg/kg) or vehicle (DMSO) for 14 weeks. Locomotor function was evaluated using the activity chamber, rotarod, and hanging-wire tests and ocular structure using optical coherence tomography (OCT)."}, "Sco2 deficient mice [7]": {"tested_on": "Sco2 deficient mice", "assay": "Rotarod running test in Sco2 mice", "format": "in vivo", "details": "KO/KI mice; vehicle 176.1 sec", "excerpt": "as §2"}, "Sco2 deficient mice [8]": {"tested_on": "Sco2 deficient mice", "assay": "Ocular structure by optical coherence tomography (OCT) in Sco2 mice", "format": "in vivo", "details": "for thickness of the retinal nerve fiber layer (RNFL): 10 mg/kg once daily oral gavage", "excerpt": "as §2"}, "glycogen content": {"tested_on": "glycogen content", "assay": "Histological assessment of glycogen in skeletal muscle", "format": "in vivo", "details": "Sco2 KI/KO mice vs untreated; FIG. 11E", "excerpt": "as §2"}, "[9]": {"tested_on": "mitochondrial cytochrome C oxidase (CytoC) and succinate dehydrogenase (SDH) activities", "assay": "Histological staining of skeletal muscle for mitochondrial enzyme activities", "format": "in vivo", "details": "Sco2 KI/KO mice vs vehicle, FIG. 11D", "excerpt": "as §2"}, "Sco2 deficient mice [10]": {"tested_on": "Sco2 deficient mice", "assay": "Hanging wire test in Sco2 mice", "format": "in vivo", "details": "KO/KI mice; vehicle 173.2 sec", "excerpt": "as §2"}, "Sco2 deficient mice [11]": {"tested_on": "Sco2 deficient mice", "assay": "Activity chamber test in Sco2 mice", "format": "in vivo", "excerpt": "as §2"}}, "note": "Entries after “also recorded” stand apart in the source; their conditions may differ."}
{"smiles": "O=C(O)c1c[nH]c2cc(Cl)c(-c3ccc(C4(O)CCC4)s3)cc12", "note": "[EV8016, 6-chloro-5-(5-(1-hydroxycyclobutyl)thiophen-2-yl)-1H-indole-3-carboxylic acid]", "values": [{"measurement": "EC50", "setting": "AMPK", "value": 0.232, "unit": "µM"}, {"measurement": "ACC phosphorylation (AMPK activation)", "setting": "[1]", "value": "capable of activating AMPK"}]}
{"smiles": "Cc1ccc(OCCSc2ncccn2)c(Br)c1", "note": "[ZLN024]", "values": [{"measurement": "survival / viability", "setting": "CI-deficient fibroblasts", "value": "improved survival"}]}
{"smiles": "NC(=O)c1ncn([C@@H]2O[C@H](CO)[C@@H](O)[C@H]2O)c1N", "note": "[AICAR]", "values": [{"measurement": "survival / viability", "setting": "[2]", "value": "does not improve cell viability; also recorded: did not improve survival"}, {"measurement": "survival / viability", "setting": "[3]", "value": "does not improve cell viability; also recorded: did not improve survival"}, {"measurement": "mean cell survival increased", "setting": "[4]; SURF1 cells, vs untreated control treated with PBS", "value": 57, "unit": "%"}, {"measurement": "survival / viability", "setting": "CI-deficient fibroblasts", "value": "does not improve cell viability; also recorded: did not improve survival"}]}
{"smiles": "OCC1(c2ccc(-c3cc4nc(O[C@@H]5CO[C@H]6[C@@H]5OC[C@H]6O)[nH]c4cc3Cl)cc2)CC1", "note": "[PF-739]", "values": [{"measurement": "cellular viability, dose dependent manner", "setting": "[4]", "value": "increasing levels of cellular viability; also recorded: improved the viability"}, {"measurement": "cellular morphology", "setting": "[5]", "value": "improved cellular morphology; also recorded: improved cell morphology"}]}
{"smiles": "O=C(O)c1c[nH]c2cc(Cl)c(-c3ccc(C4(O)CCC4)cc3)cc12", "note": "[PF-06409577]", "values": [{"measurement": "EC50", "setting": "AMPK", "value": "[…]"}, {"measurement": "cellular viability, dose dependent manner", "setting": "[4]", "value": "increasing levels of cellular viability"}, {"measurement": "cellular viability, dose dependent manner", "setting": "[4]; listed as PF-04609577", "value": "improved the viability"}, {"measurement": "cellular morphology", "setting": "[5]", "value": "improved cellular morphology"}, {"measurement": "cellular morphology", "setting": "[5]; listed as PF-04609577", "value": "improved cell morphology"}]}
{"smiles": "O[C@@H]1CO[C@H]2[C@@H]1OC[C@H]2Oc1nc2nc(-c3ccc(-c4ccccc4)cc3)c(Cl)cc2[nH]1", "note": "[MK-8722]", "values": [{"measurement": "ACC phosphorylation in skeletal muscle", "setting": "[6]", "value": "increased phosphorylation of ACC; also recorded: increase in ACC phosphorylation"}, {"measurement": "rotarod running time", "setting": "Sco2 deficient mice [7]", "value": 248.1, "unit": "s"}, {"measurement": "cellular viability, dose dependent manner", "setting": "[4]", "value": "increasing levels of cellular viability; also recorded: improved the viability"}, {"measurement": "thickness of the retinal nerve fiber layer (RNFL)", "setting": "Sco2 deficient mice [8]; KI/WT mice, vehicle 72.7 μm", "value": 74.7, "unit": "μm"}, {"measurement": "thickness of the retinal nerve fiber layer (RNFL)", "setting": "Sco2 deficient mice [8]; Sco2 KI/KO mice, vehicle 74.1 μm", "value": 77, "unit": "μm"}, {"measurement": "retinal thickness, degradation", "setting": "Sco2 deficient mice [8]; treated vs vehicle (VEH) mice, FIG. 9E", "value": "less degradation"}, {"measurement": "glycogen content of skeletal muscle", "setting": "glycogen content", "value": "increased glycogen content"}, {"measurement": "intensity of histological stains indicative of CytoC and SDH activities", "setting": "[9]", "value": "increased"}, {"measurement": "cellular morphology", "setting": "[5]", "value": "improved cellular morphology; also recorded: improved cell morphology"}, {"measurement": "hanging wire time", "setting": "Sco2 deficient mice [10]", "value": 312.5, "unit": "s"}, {"measurement": "distance moved in the activity chamber", "setting": "Sco2 deficient mice [11]; KO/KI mice, 8 weeks of treatment, vehicle 1516.7 cm", "value": 2337.8, "unit": "cm"}, {"measurement": "activity in activity chamber", "setting": "Sco2 deficient mice [11]; knock-out/knock-in mice, FIG. 11A", "value": "returns to levels comparable with knock-in/wild-type mice"}]}
{"smiles": "N#Cc1c(O)c2c(-c3ccc(-c4ccccc4O)cc3)csc2[nH]c1=O", "note": "[Compound A-769662]", "values": [{"measurement": "survival / viability", "setting": "[3]", "value": "improved survival"}, {"measurement": "survival / viability", "setting": "CI-deficient fibroblasts", "value": "improved survival"}]}
